Experimental data reported in patent US5096904A, “Pyridazinones having cardiotonic and beta blocking activities” (Glaxo Inc., priority 1990, dated 1992).

Test system: dP/dt (contractility) in barbiturate-anesthetized dogs
Assay: Anesthetized dog, inotropic effect (baseline left ventricular dP/dt)
Format: in vivo, mongrel dogs
Settings: with atenolol
Description: Inotropic effects were evaluated in barbiturate-anesthetized dogs by differentiating left intraventricular pressure. This procedure was carried out essentially as described by M. K. Grizzel et al in the FASEB Journal, Vol. 3, page 1039, abstract 4728 (1989). […] Cardiac output was determined via thermodilution with a Spectramed computer (Starcom, Oxnard, Calif.) and a 5F Swan Ganz catheter which was inserted into the right jugular vein and positioned in the pulmonary artery. […] A lead II electrocardiogram was measured using subcutaneous electrodes. […] Rectal temperature was monitored and maintained at 37°-38° C. with a heating pad (Baxter Health Care model K20, McGaw Park, Ill.). All variables were recorded using a Gould 3800S physiograph.
Isoproterenol (0.1-0.5 mg/kg) was injected i.v. into the cephalic vein at 10 min intervals except for when the test drug infusion was begun. […] Inhibition of the isoproterenol responses on contractility (dP/dt), heart rate and diastolic blood pressure were determined at each dose of test compound. The inotropic effect of each compound was determined by comparing the level of dP/dt at the end of each 10 min period to that of the level of dP/dt just prior to the infusion of test compound. […]

`O=C(COc1ccc(C2=NNC(=O)CC2)cc1Cl)NCCNC[C@H](O)COc1ccccc1` [Example 19, 6-{4-[N-[2-[3-phenoxy-2-hydroxypropylamino]ethyl]carbamoylmethoxy]-3-chlorophenyl}-4,5-dihydro-3(2H)-pyridazinone] was tested, and the “inotropic effects, blockade by atenolol” value was “not blocked by atenolol”.
